Columns and labels:
[1] = test system: eye of normal adult white rabbits; assay: Salted rabbit test: intraocular pressure after topical instillation; format: in vivo; conditions: for IOP change, Av. Chg.: 1% w/v suspension, 3 drops topical, vs placebo fellow eye, six rabbits
Experimental: In particular, an initial drop from the test formulation followed by two drops at one minute intervals are applied to one eye of each of six adult white rabbits that had been maintained on a diet containing 0.5% sodium. The treated eye was selected randomly, whereas, the fellow eye received placebo; the observer was masked. Results identified a small but significant reduction of intraocular pressure in the treated eye at 30, 60 and 120 minutes.
One drop, followed by two drops each at one minute intervals, was applied to one eye of normal adult white rabbits. Six rabbits were used in the experiment. The treated eye was selected randomly, whereas, the fellow eye received placebo. The observer was masked. The intraocular pressure (IOP) was measured with a Digilab pneumotonometer, initially and every ten minutes for 120 minutes following instillation of the anti-glaucoma agent. A drop of local anesthetic was applied just prior to making the measurement.

carbonic anhydrase = assay: in vitro carbonic anhydrase activity, simplified method of Maren; format: biochemical
Experimental: The procedure required the use of a specialized glass reaction vessel to which was added 0.4 ml phenol red indicator (0.00125%), 0.25 to 0.30 ml heparinized blood containing 2 enzyme units of carbonic anhydrase, 0.1 ml drug solution (0.01 to 100 mg/L) and 0.1 ml of 0.255 M carbonate buffer. […] Each reagent was added at a specified time and in a specified order. […] Reaction time was the time for the uncatalyzed reaction time. […] By varying the time before adding the carbonate buffer and then determining the reaction time, the equilibration time can be accurately determined. The reaction time was averaged over three determinations. A range of drug concentrations were reacted and the concentration of drug causing 50% inhibition of enzyme (I50) read from a plot of reaction time against drug concentration. (If two enzyme units are added, then the concentration of drug yielding a reaction time corresponding to the activity of one unit is taken as the I50).

Row | I50 (concentration of drug causing 50% inhibition of enzyme), averaged (carbonic anhydrase; heparinized blood containing 2 enzyme units of carbonic anhydrase, 0° C.) | time required for carbonic anhydrase to reach an equilibrium with drug (carbonic anhydrase; time between addition of drug solution and carbonate buffer) | SMILES | IOP change, Av. Chg. ([1]; 10 minutes) | IOP change, Av. Chg. ([1]; 20 minutes) | IOP change, Av. Chg. ([1]; 30 minutes) | IOP change, Av. Chg. ([1]; 40 minutes) | IOP change, Av. Chg. ([1]; 50 minutes) | IOP change, Av. Chg. ([1]; 60 minutes) | IOP change, Av. Chg. ([1]; 70 minutes) | IOP change, Av. Chg. ([1]; 80 minutes) | IOP change, Av. Chg. ([1]; 90 minutes) | IOP change, Av. Chg. ([1]; 100 minutes) | IOP change, Av. Chg. ([1]; 110 minutes) | IOP change, Av. Chg. ([1]; 120 minutes) | effect on intraocular pressure (IOP) in vivo (in words) ([1]; after topical administration) | lowering of IOP, statistical significance ([1]; all time intervals, 10 to 120 minutes)
1 | 0.520 mg/L | – | CNS(=O)(=O)c1nnc(NC(C)=O)s1 [methyl acetazolamide, N-methyl-2-acetylamino-1,3,4-thiadiazole-5-sulfonamide] | -2 mm Hg | -1.67 mm Hg | -2.33 mm Hg | -0.40 mm Hg | -1.83 mm Hg | -1.67 mm Hg | -1.67 mm Hg | -2.14 mm Hg | -1.50 mm Hg | -2.67 mm Hg | -0.67 mm Hg | -1.5 mm Hg | able to reduce intraocular pressure | statistically significant
2 | – | 10 s | Nc1ccc(S(N)(=O)=O)cc1 [sulfanilamide, reference compound] | – | – | – | – | – | – | – | – | – | – | – | – | – | –
